Assay results taken from patent publication US20030166554A1, “Treatment of CNS disorders using D-amino acid oxidase and D-aspartate oxidase antagonists” (GENSET, S.A., priority 2001, published 2003).

How the values were obtained:
[1] = test system: PCP-induced hyperactivity in male Swiss mice; experiment: Locomotor hyperactivity induced by PCP in mice (open field); format: in vivo; settings: 30 minute open field, mean +/- s.e.m.
Description: Randomized groups of 10 male Swiss mice (9 weeks old, Elevage Janvier; Le Genest-St-Isle, France) were used for each study.
Mice were group-housed and maintained in an incubator with controlled temperature (21-22° C.) and a reversed light-dark cycle (12 h/12 h) with food and water available ad libitum. All experiments were carried out in accordance with institutional guidelines.
It is well known to those skilled in the art that phencyclidine (PCP) intoxication in mice closely mimics schizophrenia and therefore is commonly used as an animal model of schizophrenia. In the following experiments, the ability of the DAO inhibitor, sodium benzoate, to reverse PCP-induced hyperactivity was monitored. PCP and the test compound, sodium benzoate, were diluted in a 0.9% sterile aqueous solution of sodium chloride (1 mg/ml). Sodium benzoate was administered by intraperitoneal injection (IP) 2 hours before administration of PCP (0.3 mg/kg by subcutaneous (SC) injection 15 minutes before start of the test). The animals were placed into an open field, which was divided into nine equal squares. A video track (Viewpoint system) was placed over a Plexiglas open field (OF; length 52 cm×52 cm; height 40 cm) and animal activity was recorded. Over a 30 minute time period, two parameters were recorded: (a) number of crossed squares and (b) total distance walked.
A global analysis of the data was performed using a one way ANOVA followed by a Dunnett's test if possible. The level of significance was set at p<0.05. Results were expressed was mean +/− standard error of the mean (s.e.m.).

[2] = target: T1, hDAAO (Homo sapiens, UniProt P14920); experiment: DAAO activity of combined yeast extracts expressing hDAAO and g34872; format: biochemical; settings: D-serine, 37° C., FIG. 1
T1 construct: made in house; host or cells: Saccharomyces cerevisiae (YPH499 and FY1679-18B strains), pESC-Leu vector, galactose induction; crude extract
T1 sequence (P14920 whole entry): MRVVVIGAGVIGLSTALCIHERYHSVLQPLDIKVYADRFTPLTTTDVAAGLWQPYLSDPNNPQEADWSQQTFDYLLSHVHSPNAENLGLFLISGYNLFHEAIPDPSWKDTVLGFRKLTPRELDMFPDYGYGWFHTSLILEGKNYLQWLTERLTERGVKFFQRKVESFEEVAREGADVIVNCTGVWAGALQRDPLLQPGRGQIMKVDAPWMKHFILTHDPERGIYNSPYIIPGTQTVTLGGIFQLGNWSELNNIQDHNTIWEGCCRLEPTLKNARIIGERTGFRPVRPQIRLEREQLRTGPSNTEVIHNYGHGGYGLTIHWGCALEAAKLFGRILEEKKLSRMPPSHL
Description: (§1) The assay mixture was typically composed of D-serine (Aldrich) 200 mM, FAD (Sigma) at 0.1 mM, sodium phosphate buffer pH8 at 75 mM, HR-peroxidase (Sigma) 1U/ml. The mixture was air-saturated just before use. o-Dianizidine (Sigma) was added in the mixture. In the typical assay 5 μl of the enzyme (DAAO and mixes) was added to 25 μl of the assay mixture, the incubation was stopped with 50 μl of 20% H2SO4. The activity was observed as absorbance of the peroxidase-oxidized o-Dianizidine at 540 nm. The reactions containing high protein concentrations were centrifuged 15 min at 14000 rpm before absorbance measuring.
Yeast cells were transformed with the plasmids constructed in pESC-Leu expression vector. One plasmid can express hDAAO, second one—C-terminal tagged g34872, third—is the vector without insertion (control). After the induction of the expression (2% galactose in the medium) these cells were incubated for 24 h, than the extracts were maid and combined as follow: different volumes of DAAO extract were mixed with either g34872-cHis6 or with the vector extracts. The same volumes of DAAO extracts were also mixed with BSA (external control). After 30min of the pre-incubation the combined extracts were used for DAAO activity measuring. All yeast extracts and BSA solution had the same total protein concentration. DAAO activity was determined with D-serine at 37° C.

[3] = target: T2, Pig kidney DAAO (Sus scrofa, UniProt P00371); experiment: DAAO kinetics in the presence of g34872 protein (D-serine substrate); format: biochemical; settings: 20° C.
T2 construct: The crude preparation of pig kidney DAAO was purchased from Sigma; purchased Sigma; host or cells: pig kidney tissue; purified further in house (Sephadex G-50, DEAE-Sepharose, Ultragel AcA44)
T2 sequence (P00371 whole entry): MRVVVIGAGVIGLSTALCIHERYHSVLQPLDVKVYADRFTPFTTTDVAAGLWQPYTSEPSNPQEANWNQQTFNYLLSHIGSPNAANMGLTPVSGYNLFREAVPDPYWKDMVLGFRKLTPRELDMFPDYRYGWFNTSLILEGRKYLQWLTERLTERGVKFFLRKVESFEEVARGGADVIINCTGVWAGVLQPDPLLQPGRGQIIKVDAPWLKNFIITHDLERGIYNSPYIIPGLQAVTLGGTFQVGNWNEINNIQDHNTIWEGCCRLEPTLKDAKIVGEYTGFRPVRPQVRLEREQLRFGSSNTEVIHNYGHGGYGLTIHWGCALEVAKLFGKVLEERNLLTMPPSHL
Description: as §1
Pig kidney DAAO was mixed with g34872 in PBS and incubated 30 min at 20° C. DAAO concentration was 200 ng/μl and g34872 concentration was 2 μg/μl in the protein mixture. The control mixture (without g34872) was composed of 200 ng/μl DAAO and 2 μg/μl BSA. The enzymatic activity of DAAO was measured at 20° C. with D-serine, the substrate concentration used were from 0 to 100 mM, other corposants of the mixture and pH were standard.

[4] = test system: HR-peroxidase; experiment: Peroxidase control assay (hydrogen peroxide substrate); format: biochemical; settings: conditions identical to DAAO assay
Description: The assay of peroxidase was done in the conditions identical to those for DAAO assay; hydrogen peroxide (Gibco) was used as a substrate, and no effect of g34872 on HRP activity was confirmed.

[5] = PCP alone 0.3 mg/kg SC 15 minutes before test
[6] = sodium benzoate 400 mg/kg IP 2 hours before PCP 0.3 mg/kg SC

c1ccc(C2(N3CCCCC3)CCCCC2)cc1 [PCP, phencyclidine]
number of crossed squares [1, 5]: 977.0+/−64.6
total distance walked [1, 5]: 18781.8+/−1447.5

O=C([O-])c1ccccc1.[Na+] [sodium benzoate]
total distance walked ([1]; sodium benzoate 125 mg/kg IP 2 hours before PCP 0.3 mg/kg SC): 14807.7+/−756.8
number of crossed squares [1, 6]: 740.1+/−114.1
total distance walked [1, 6]: 13521.0+/−1705.6

B1: g34872: purified recombinant g34872 protein, binding partner and activator of DAO (protein)
chain: HEDGYLEMAQRHLQRSLCPWVSYLPQPYAELEEVSSHVGKVFMARNYEFLAYEASKDRRQPLERMWTCNYNQQKDQSCNHKEITSTKAE
effect on DAO activity [2]: activates DAO
Km ([3]; g34872&DAAO mix: DAAO 200 ng/μl, g34872 2 μg/μl, D-serine 0 to 100 mM): 4 mM
effect of g34872 on DAAO (mode of action) ([3]; pig kidney DAAO, D-serine): Allosteric Activator
effect on HRP activity [4]: no effect
